Legend:
[1] = target: Poly [ADP-ribose] polymerase 1 (Homo sapiens, UniProt P09874); test: Inhibition of PARP1 (unknown origin) using biotin-NAD+ as substrate incubated for 1 hr by ELISA
[2] = target: Phosphatidylinositol 4,5-bisphosphate 3-kinase catalytic subunit alpha isoform (Homo sapiens, UniProt P42336); test: Inhibition of PI3Kalpha (unknown origin) using PIP2 as substrate measured after 40 mins by ADP-glo plus luminescence assay
HCT-116 = test: Antiproliferative activity against human BRCA-2 deficient HCT-116 cells assessed as reduction in cell growth incubated for 7 days by cell titer-glo assay; format: functional, cell-based; conditions: HCT-116, 168 h
SW-620 = test: Antiproliferative activity against human BRCA-2 proficient SW-620 cells assessed as reduction in cell growth incubated for 7 days by cell titer-glo assay; format: functional, cell-based; conditions: SW-620, 168 h
HCC1937 = test: Antiproliferative activity against human BRCA-1 deficient HCC1937 cells assessed as reduction in cell growth incubated for 7 days by cell titer-glo assay; format: functional, cell-based; conditions: HCC1937, 168 h
MDA-MB-231 = test: Antiproliferative activity against human BRCA proficient MDA-MB-231 cells assessed as reduction in cell growth incubated for 7 days by cell titer-glo assay; format: functional, cell-based; conditions: MDA-MB-231, 168 h
MDA-MB-468 [3] = test: Antiproliferative activity against human BRCA proficient MDA-MB-468 cells assessed as reduction in cell growth incubated for 7 days by cell titer-glo assay; format: functional, cell-based; conditions: MDA-MB-468, 168 h
[4] = target: Poly [ADP-ribose] polymerase 2 (Homo sapiens, UniProt Q9UGN5); test: Inhibition of PARP2 (unknown origin) using biotin-NAD+ as substrate incubated for 1 hr by ELISA
Poly [ADP-ribose] polymerase 2, sequence (Q9UGN5 whole entry, canonical isoform): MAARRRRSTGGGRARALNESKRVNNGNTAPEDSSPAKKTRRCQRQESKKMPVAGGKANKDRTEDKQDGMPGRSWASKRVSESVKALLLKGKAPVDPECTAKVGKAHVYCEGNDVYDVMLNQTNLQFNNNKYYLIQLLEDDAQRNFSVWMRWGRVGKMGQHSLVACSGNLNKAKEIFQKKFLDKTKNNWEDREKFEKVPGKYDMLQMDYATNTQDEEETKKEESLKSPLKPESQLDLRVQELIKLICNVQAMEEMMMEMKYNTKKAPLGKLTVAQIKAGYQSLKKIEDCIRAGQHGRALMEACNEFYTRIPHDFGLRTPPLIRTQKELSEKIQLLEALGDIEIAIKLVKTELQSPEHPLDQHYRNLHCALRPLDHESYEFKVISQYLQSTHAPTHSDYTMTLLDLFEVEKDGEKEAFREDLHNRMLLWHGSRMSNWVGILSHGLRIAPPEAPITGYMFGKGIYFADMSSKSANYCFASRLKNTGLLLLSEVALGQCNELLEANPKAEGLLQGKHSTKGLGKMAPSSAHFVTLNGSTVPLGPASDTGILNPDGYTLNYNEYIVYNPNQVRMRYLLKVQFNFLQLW

[5] = target: Phosphatidylinositol 4,5-bisphosphate 3-kinase catalytic subunit beta isoform (Homo sapiens, UniProt P42338); test: Inhibition of PI3Kbeta (unknown origin) using PIP2 as substrate measured after 1 hr by ADP-glo plus luminescence assay
Phosphatidylinositol 4,5-bisphosphate 3-kinase catalytic subunit beta isoform, sequence (P42338 whole entry, canonical isoform): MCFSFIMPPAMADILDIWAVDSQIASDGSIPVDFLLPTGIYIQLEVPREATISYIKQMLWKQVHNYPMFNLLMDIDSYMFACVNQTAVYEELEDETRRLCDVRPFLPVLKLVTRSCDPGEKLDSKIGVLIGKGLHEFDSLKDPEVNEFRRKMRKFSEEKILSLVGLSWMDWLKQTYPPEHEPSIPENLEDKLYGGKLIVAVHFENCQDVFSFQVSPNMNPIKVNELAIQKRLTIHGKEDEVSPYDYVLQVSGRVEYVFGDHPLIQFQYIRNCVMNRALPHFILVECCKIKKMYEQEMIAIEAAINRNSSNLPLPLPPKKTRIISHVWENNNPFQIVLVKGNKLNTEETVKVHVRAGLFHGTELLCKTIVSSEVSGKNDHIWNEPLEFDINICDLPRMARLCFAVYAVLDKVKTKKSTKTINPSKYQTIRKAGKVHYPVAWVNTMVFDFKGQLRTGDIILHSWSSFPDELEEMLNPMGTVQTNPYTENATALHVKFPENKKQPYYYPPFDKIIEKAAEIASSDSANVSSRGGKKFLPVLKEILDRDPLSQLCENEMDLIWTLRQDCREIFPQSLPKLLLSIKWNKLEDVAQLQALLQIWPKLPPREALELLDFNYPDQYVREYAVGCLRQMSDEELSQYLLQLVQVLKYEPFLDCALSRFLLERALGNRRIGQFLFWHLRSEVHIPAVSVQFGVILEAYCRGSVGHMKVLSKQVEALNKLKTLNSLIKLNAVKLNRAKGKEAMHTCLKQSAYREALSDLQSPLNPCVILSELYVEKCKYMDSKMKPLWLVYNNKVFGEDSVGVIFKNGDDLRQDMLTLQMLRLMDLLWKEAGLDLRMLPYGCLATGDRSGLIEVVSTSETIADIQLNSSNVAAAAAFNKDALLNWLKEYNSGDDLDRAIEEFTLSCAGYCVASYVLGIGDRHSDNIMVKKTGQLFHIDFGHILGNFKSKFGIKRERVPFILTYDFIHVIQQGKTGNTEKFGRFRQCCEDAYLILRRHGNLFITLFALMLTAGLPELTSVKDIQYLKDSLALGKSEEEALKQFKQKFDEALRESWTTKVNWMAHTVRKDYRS

[6] = target: Phosphatidylinositol 4,5-bisphosphate 3-kinase catalytic subunit gamma isoform (Homo sapiens, UniProt P48736); test: Inhibition of PI3Kgamma (unknown origin) using PIP2 as substrate measured after 1 hr by ADP-glo plus luminescence assay
Phosphatidylinositol 4,5-bisphosphate 3-kinase catalytic subunit gamma isoform, sequence (P48736 whole entry, canonical isoform): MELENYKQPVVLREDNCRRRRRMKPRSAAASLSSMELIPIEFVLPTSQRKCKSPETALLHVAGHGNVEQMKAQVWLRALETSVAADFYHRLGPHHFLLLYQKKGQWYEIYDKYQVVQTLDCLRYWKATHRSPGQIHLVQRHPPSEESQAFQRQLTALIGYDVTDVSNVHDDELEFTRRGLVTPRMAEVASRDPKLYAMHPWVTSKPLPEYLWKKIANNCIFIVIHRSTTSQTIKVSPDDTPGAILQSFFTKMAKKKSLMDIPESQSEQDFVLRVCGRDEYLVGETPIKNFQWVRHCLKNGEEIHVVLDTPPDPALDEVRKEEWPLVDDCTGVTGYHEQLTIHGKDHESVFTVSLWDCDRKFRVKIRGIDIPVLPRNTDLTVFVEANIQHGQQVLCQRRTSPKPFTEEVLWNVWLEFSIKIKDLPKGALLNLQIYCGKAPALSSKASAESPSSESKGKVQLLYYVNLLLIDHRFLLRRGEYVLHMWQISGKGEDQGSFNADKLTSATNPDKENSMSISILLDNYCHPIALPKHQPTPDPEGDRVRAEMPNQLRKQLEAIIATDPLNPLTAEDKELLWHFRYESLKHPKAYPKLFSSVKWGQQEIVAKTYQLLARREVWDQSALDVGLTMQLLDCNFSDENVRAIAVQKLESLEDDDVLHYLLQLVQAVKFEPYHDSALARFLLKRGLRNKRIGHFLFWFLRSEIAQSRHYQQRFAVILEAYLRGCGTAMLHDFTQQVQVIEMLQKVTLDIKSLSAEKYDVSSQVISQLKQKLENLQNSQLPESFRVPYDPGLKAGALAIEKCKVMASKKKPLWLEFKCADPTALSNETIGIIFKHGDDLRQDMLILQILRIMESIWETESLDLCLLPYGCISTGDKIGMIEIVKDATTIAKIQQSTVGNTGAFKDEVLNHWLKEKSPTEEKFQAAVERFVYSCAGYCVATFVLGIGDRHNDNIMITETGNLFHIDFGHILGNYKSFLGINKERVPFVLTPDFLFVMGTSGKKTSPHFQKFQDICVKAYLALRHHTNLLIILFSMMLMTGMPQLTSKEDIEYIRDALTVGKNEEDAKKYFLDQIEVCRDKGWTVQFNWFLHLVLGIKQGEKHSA

[7] = target: T1, Phosphatidylinositol 4,5-bisphosphate 3-kinase catalytic subunit delta isoform (Homo sapiens, UniProt O00329); test: Inhibition of PI3Kdelta (unknown origin) using PIP2 as substrate measured after 2 hrs by ADP-glo plus luminescence assay
T1 sequence (O00329 whole entry): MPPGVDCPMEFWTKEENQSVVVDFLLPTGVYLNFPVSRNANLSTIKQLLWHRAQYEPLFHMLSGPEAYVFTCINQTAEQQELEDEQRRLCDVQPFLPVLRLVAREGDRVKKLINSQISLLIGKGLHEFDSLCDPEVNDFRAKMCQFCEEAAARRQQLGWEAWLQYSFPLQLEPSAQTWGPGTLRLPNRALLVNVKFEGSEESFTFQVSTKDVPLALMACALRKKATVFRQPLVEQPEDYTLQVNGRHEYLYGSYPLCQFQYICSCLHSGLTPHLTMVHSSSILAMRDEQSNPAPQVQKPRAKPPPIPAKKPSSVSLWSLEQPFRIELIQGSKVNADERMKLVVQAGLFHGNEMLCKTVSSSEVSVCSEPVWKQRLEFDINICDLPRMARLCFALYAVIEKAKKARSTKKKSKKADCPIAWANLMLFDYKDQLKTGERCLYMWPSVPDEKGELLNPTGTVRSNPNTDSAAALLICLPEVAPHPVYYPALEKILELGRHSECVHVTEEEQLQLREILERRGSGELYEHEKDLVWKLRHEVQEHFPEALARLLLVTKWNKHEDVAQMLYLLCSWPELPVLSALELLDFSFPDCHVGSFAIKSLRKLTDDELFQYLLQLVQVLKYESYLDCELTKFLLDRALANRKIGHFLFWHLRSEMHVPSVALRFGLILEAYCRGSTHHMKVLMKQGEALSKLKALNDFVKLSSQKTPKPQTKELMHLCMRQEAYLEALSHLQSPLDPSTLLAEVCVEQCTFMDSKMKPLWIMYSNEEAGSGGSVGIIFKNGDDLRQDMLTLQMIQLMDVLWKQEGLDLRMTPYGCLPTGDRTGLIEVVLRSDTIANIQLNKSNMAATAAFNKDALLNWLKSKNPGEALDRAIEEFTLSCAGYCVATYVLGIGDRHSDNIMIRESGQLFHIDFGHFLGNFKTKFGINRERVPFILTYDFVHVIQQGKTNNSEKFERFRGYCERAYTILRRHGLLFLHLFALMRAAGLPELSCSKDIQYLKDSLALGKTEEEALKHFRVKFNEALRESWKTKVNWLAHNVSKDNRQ

[8] = target: RAC-alpha serine/threonine-protein kinase (Homo sapiens, UniProt P31749); test: Inhibition of AKT (unknown origin)
[9] = target: Serine/threonine-protein kinase mTOR (Homo sapiens, UniProt P42345); test: Inhibition of mTOR (unknown origin)
MDA-MB-468 [10] = test: Antitumor activity against human MDA-MB-468 cells xenografted in BALB/c mouse assessed as tumor growth inhibition at 20 mg/kg, ip once daily administered for 32 days relative to control; format: functional; conditions: MDA-MB-468, ip, 768 h, time 32 day, read-out: TGI
[11] = target: Voltage-gated inwardly rectifying potassium channel KCNH2 (Homo sapiens, UniProt Q12809); test: Inhibition of human ERG
MDA-MB-468 [12] = test: Antitumor activity against human MDA-MB-468 cells xenografted in BALB/c mouse assessed as tumor growth inhibition at 27.5 mg/kg, ip once daily administered for 32 days relative to control; format: functional; conditions: MDA-MB-468, ip, 768 h, time 32 day, read-out: TGI
MDA-MB-468 [13] = test: Antitumor activity against human MDA-MB-468 cells xenografted in BALB/c mouse assessed as tumor growth inhibition at 27.5 mg/kg, ip administered for 32 days along with olaparib relative to control; format: functional; conditions: MDA-MB-468, ip, 768 h, time 32 day, read-out: TGI
MDA-MB-468 [14] = test: Antitumor activity against human MDA-MB-468 cells xenografted in BALB/c mouse assessed as tumor growth inhibition at 50 mg/kg, ip once daily administered for 32 days relative to control; format: functional; conditions: time 32 day
MDA-MB-468 [15] = test: Antitumor activity against human MDA-MB-468 cells xenografted in BALB/c mouse assessed as tumor growth inhibition at 50 mg/kg, ip administered for 32 days along with GDC-0980 relative to control; format: functional; conditions: time 32 day

Phosphatidylinositol 4,5-bisphosphate 3-kinase catalytic subunit alpha isoform, sequence (P42336 whole entry, canonical isoform): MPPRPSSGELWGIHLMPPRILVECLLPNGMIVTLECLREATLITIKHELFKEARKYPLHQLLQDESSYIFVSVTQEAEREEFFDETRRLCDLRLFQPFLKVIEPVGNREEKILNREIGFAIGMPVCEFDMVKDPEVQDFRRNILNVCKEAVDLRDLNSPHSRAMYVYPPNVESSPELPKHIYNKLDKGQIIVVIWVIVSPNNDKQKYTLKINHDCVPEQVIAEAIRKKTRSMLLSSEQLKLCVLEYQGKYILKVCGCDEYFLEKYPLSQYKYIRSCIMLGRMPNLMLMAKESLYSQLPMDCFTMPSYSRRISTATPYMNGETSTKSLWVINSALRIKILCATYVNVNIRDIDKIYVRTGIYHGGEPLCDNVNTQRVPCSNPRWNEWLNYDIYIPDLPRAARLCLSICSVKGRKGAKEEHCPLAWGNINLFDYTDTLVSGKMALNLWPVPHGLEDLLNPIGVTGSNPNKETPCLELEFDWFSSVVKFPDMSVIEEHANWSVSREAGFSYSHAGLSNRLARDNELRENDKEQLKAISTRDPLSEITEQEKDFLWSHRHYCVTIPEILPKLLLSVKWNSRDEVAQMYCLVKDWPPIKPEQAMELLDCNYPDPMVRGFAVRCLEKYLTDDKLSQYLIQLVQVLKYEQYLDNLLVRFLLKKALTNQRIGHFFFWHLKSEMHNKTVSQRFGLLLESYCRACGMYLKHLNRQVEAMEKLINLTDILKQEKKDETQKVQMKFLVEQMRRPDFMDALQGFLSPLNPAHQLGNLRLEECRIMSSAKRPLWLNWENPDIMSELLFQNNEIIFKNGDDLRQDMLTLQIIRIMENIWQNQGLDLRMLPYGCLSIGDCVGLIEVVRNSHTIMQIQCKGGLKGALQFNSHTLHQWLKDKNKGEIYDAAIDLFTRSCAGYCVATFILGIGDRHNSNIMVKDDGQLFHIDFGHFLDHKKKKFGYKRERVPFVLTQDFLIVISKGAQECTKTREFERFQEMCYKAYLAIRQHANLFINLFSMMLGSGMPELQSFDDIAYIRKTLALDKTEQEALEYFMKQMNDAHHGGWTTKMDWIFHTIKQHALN
Poly [ADP-ribose] polymerase 1, sequence (P09874 whole entry, canonical isoform): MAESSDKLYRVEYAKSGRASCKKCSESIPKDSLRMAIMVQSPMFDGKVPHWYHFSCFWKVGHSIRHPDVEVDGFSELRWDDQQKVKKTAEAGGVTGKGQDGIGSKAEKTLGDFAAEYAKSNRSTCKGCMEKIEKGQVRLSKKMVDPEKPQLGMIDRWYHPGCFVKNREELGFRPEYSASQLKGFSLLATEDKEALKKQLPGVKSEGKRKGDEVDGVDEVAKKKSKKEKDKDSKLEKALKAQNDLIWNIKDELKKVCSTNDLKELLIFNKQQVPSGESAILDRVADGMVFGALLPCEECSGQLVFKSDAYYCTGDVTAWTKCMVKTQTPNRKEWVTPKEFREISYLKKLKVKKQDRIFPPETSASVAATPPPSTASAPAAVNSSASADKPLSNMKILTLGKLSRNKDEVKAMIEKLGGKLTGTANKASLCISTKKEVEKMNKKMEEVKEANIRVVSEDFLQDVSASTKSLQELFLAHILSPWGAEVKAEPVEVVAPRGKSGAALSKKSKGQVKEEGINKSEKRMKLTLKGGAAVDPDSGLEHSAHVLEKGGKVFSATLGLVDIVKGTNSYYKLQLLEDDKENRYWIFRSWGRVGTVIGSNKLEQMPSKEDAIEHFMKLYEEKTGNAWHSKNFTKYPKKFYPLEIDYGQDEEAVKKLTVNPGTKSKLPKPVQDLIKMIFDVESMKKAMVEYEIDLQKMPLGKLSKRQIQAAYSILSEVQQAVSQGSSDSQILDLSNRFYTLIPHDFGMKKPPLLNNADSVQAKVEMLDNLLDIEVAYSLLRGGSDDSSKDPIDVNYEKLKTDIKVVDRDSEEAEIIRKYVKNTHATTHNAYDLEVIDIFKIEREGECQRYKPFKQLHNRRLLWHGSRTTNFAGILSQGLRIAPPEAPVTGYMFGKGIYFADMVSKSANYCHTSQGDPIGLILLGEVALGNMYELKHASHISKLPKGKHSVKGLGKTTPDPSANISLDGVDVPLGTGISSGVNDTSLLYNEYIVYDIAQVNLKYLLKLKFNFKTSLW

IC50 [1]	IC50 [2]	IC50 (HCT-116)	IC50 (SW-620)	IC50 (HCC1937)	IC50 (MDA-MB-231)	IC50 (MDA-MB-468 [3])	Structure (SMILES)	further results
31.7 nM							Cc1c(CN2CCN(C(=O)c3cc4cccc(C(N)=O)c4o3)CC2)sc2c(N3CCOCC3)nc(-c3ccc4[nH]ccc4c3)nc12	
8.8 nM	3.7 nM						Nc1ncc(-c2nc(N3CCOCC3)c3sc(CN4CCN(C(=O)c5cc(Cc6n[nH]c(=O)c7ccccc67)ccc5F)CC4)cc3n2)cn1	
140 nM	1140 nM						Cc1c(CN2CCN(C(=O)c3cc4cccc(C(N)=O)c4o3)CC2)sc2c(N3CCOCC3)nc(-c3cccc4[nH]ccc34)nc12	
16.7 nM	1380 nM	5840 nM	> 10000 nM	5380 nM	> 10000 nM	> 10000 nM	Cc1c(CN2CCN(C(=O)c3cc4cccc(C(N)=O)c4o3)CC2)sc2c(N3CCOCC3)nc(-c3ccc(F)c(N)c3)nc12	
42.4 nM	168 nM	890 nM	3320 nM	800 nM	3300 nM	> 10000 nM	Cc1c(CN2CCN(C(=O)c3cc4cccc(C(N)=O)c4o3)CC2)sc2c(N3CCOCC3)nc(-c3cccc4[nH]ncc34)nc12	
1.5 nM	2 nM	310 nM	920 nM	410 nM	1300 nM	1080 nM	Cc1c(CN2CCN(C(=O)c3cc(Cc4n[nH]c(=O)c5ccccc45)ccc3F)CC2)sc2c(N3CCOCC3)nc(-c3cnc(N)nc3)nc12	IC50 [4]: 0.89 nM; IC50 [5]: 53 nM; IC50 [6]: 25 nM; IC50 [7]: 6.8 nM; IC50 [8]: > 100000 nM; IC50 [9]: 50 nM; inhibition in vivo at 20 mg/kg (MDA-MB-468 [10]): 56.4%
1.9 nM	14 nM						Cc1c(CN2CCN(C(=O)c3cc4cccc(C(N)=O)c4o3)CC2)sc2c(N3CCOCC3)nc(-c3ccc(N)nc3)nc12	
9.18 nM	1180 nM	2320 nM	> 10000 nM	3860 nM	> 10000 nM	> 10000 nM	Cc1c(CN2CCN(C(=O)c3cc4cccc(C(N)=O)c4o3)CC2)sc2c(N3CCOCC3)nc(-c3ccc(N)c(F)c3)nc12	
101 nM	2.3 nM	690 nM	3370 nM	500 nM	3170 nM	1630 nM	Cc1c(CN2CCN(C(=O)c3cc4cccc(C(N)=O)c4o3)CC2)sc2c(N3CCOCC3)nc(-c3cnc(N)cc3C(F)(F)F)nc12	
0.91 nM	1.5 nM	280 nM	880 nM	290 nM	920 nM	1020 nM	Cc1c(CN2CCN(C(=O)c3cc4cccc(C(N)=O)c4o3)CC2)sc2c(N3CCOCC3)nc(-c3cnc(N)nc3)nc12	IC50 [4]: 0.92 nM; IC50 [5]: 43 nM; IC50 [6]: 73 nM; IC50 [7]: 2.7 nM; IC50 [8]: > 100000 nM; IC50 [9]: 12 nM; inhibition in vivo at 20 mg/kg (MDA-MB-468 [10]): 48.8%; IC50 [11]: > 30000 nM
40.1 nM							Cc1c(CN2CCN(C(=O)c3cc4cccc(C(N)=O)c4o3)CC2)sc2c(N3CCOCC3)nc(-c3ccc(N)cc3F)nc12	
2.97 nM	0.51 nM						NC(=O)c1cccc2cc(C(=O)N3CCN(Cc4cc5nc(-c6cnc(N)nc6)nc(N6CCOCC6)c5o4)CC3)oc12	IC50 [4]: 1.34 nM; IC50 [5]: 69 nM; IC50 [6]: 141 nM; IC50 [7]: 4.3 nM; IC50 [9]: 216 nM
22.6 nM	319 nM	3970 nM	7980 nM	4580 nM	7170 nM	9260 nM	Cc1c(CN2CCN(C(=O)c3cc4cccc(C(N)=O)c4o3)CC2)sc2c(N3CCOCC3)nc(-c3ccc(N)cc3)nc12	
1.98 nM	0.6 nM						NC(=O)c1cccc2cc(C(=O)N3CCN(Cc4cc5nc(-c6cnc(N)nc6)nc(N6CCOCC6)c5s4)CC3)oc12	IC50 [4]: 1.19 nM; IC50 [5]: 11 nM; IC50 [6]: 31 nM; IC50 [7]: 1.8 nM; IC50 [9]: 23 nM
91.5 nM	3810 nM	5070 nM	> 10000 nM	3570 nM	> 10000 nM	> 10000 nM	Cc1c(CN2CCN(C(=O)c3cc4cccc(C(N)=O)c4o3)CC2)sc2c(N3CCOCC3)nc(-c3ccc4cn[nH]c4c3)nc12	
197 nM	7 nM	690 nM	7230 nM	1080 nM	3600 nM	2650 nM	Cc1c(CN2CCN(C(=O)c3cc(Cc4n[nH]c(=O)c5ccccc45)ccc3F)CC2)sc2c(N3CCOCC3)nc(-c3cnc(N)cc3C(F)(F)F)nc12	
		1110 nM	1720 nM	3210 nM	2460 nM	1670 nM	Cc1c(CN2CCN(C(=O)[C@H](C)O)CC2)sc2c(N3CCOCC3)nc(-c3cnc(N)nc3)nc12 [APITOLISIB]	inhibition in vivo at 27.5 mg/kg (MDA-MB-468 [12]): 38%; inhibition in vivo at 27.5 mg/kg (MDA-MB-468 [13]): 45.9%
		> 10000 nM	> 10000 nM	> 10000 nM	> 10000 nM	> 10000 nM	O=C(c1cc(Cc2n[nH]c(=O)c3ccccc23)ccc1F)N1CCN(C(=O)C2CC2)CC1 [OLAPARIB]	TGI (MDA-MB-468 [14]): 27.91%; TGI (MDA-MB-468 [15]): 45.93%
